Literature values in patent US20210274780A1, “Disinfectant Composition Against the Novel Wuhan Corona Virus COVID-19” (priority 2020, published 2021).

How the values were obtained:
[1] = test system: Gram-positive bacteria
[2] = test system: polioviruses
[3] = test system: adenoviruses

SMILES: [H]/N=C(\N/C(=N/[H])NCCCCCCNC(=N)NC(=N)Nc1ccc(Cl)cc1)Nc1ccc(Cl)cc1 [Chlorhexidine]
- effective concentration [1]: ≥ 1 µg/L
- effectiveness against polioviruses [2]: ineffective
- effectiveness against adenoviruses [3]: ineffective
